Experiments:
Experiment in all cases: KINOMEscan competition binding
Details in all cases: compound 10.0 µM
PIP5K1A (human) = PIP5K1A (human) (UniProt Q99755)
TAOK1 (human) = TAOK1 (human) (UniProt Q7L7X3)
CLK3 (human) = CLK3 (human) (UniProt P49761)
PDGFRB (human) = PDGFRB (human) (UniProt P09619)
PRKD1 (human) = PRKD1 (human) (UniProt Q15139)
[1] = test system: FLT3 (human), P36888 [D835H]
DAPK2 (human) = DAPK2 (human) (UniProt Q9UIK4)
[2] = test system: KIT (human), P10721 [D816V]
CSNK1G3 (human) = CSNK1G3 (human) (UniProt Q9Y6M4)
CHUK (human) = CHUK (human) (UniProt O15111)
MAP3K5 (human) = MAP3K5 (human) (UniProt Q99683)
DAPK3 (human) = DAPK3 (human) (UniProt O43293)
MAP4K4 (human) = MAP4K4 (human) (UniProt O95819)
RIPK4 (human) = RIPK4 (human) (UniProt P57078)
[3] = target: JAK1 JH2 pseudokinase (human) (UniProt P23458)
MYLK4 (human) = MYLK4 (human) (UniProt Q86YV6)
PRKD3 (human) = PRKD3 (human) (UniProt O94806)
CDK16 (human) = CDK16 (human) (UniProt Q00536)
[4] = target: TYK2 JH2 pseudokinase (human) (UniProt P29597)
[5] = test system: FLT3 (human), P36888 [K663Q]
CSNK1E (human) = CSNK1E (human) (UniProt P49674)
MAP2K4 (human) = MAP2K4 (human) (UniProt P45985)
RIOK1 (human) = RIOK1 (human) (UniProt Q9BRS2)
RPS6KA5 KD2 (human) = RPS6KA5 KD2 (human) (UniProt O75582)
PIK3CG (human) = PIK3CG (human) (UniProt P48736)
[6] = test system: EGFR (human), P00533 [G719S]
[7] = test system: FLT3 (human), P36888 [ITD]
STK33 (human) = STK33 (human) (UniProt Q9BYT3)
[8] = test system: EGFR (human), P00533 [747-751 del / S ins]
RPS6KA2 KD2 (human) = RPS6KA2 KD2 (human) (UniProt Q15349)
STK17A (human) = STK17A (human) (UniProt Q9UEE5)
HIPK1 (human) = HIPK1 (human) (UniProt Q86Z02)
PIP4K2B (human) = PIP4K2B (human) (UniProt P78356)
MYLK (human) = MYLK (human) (UniProt Q15746)
DMPK (human) = DMPK (human) (UniProt Q09013)
[9] = target: JAK3 JH1 catalytic (human) (UniProt P52333)
CLK1 (human) = CLK1 (human) (UniProt P49759)
[10] = test system: KIT (human), P10721 [V559D/T670I]
CAMKK1 (human) = CAMKK1 (human) (UniProt Q8N5S9)
[11] = test system: FLT3 (human), P36888 [N841I]
STK17B (human) = STK17B (human) (UniProt O94768)
RPS6KA1 KD2 (human) = RPS6KA1 KD2 (human) (UniProt Q15418)

CSNK1E (human), sequence (P49674 whole entry, looked up): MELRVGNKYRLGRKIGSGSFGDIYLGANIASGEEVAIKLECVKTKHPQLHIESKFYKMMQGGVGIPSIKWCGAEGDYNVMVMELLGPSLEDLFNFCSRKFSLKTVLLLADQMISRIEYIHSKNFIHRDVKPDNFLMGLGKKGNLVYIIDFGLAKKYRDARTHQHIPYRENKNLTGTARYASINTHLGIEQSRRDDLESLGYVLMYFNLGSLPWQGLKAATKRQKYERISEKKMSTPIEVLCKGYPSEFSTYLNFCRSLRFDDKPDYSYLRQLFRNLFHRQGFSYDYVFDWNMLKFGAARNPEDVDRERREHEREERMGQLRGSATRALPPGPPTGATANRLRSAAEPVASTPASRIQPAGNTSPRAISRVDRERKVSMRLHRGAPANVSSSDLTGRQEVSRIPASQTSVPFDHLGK
JAK3 JH1 catalytic (human), sequence (P52333 whole entry, looked up): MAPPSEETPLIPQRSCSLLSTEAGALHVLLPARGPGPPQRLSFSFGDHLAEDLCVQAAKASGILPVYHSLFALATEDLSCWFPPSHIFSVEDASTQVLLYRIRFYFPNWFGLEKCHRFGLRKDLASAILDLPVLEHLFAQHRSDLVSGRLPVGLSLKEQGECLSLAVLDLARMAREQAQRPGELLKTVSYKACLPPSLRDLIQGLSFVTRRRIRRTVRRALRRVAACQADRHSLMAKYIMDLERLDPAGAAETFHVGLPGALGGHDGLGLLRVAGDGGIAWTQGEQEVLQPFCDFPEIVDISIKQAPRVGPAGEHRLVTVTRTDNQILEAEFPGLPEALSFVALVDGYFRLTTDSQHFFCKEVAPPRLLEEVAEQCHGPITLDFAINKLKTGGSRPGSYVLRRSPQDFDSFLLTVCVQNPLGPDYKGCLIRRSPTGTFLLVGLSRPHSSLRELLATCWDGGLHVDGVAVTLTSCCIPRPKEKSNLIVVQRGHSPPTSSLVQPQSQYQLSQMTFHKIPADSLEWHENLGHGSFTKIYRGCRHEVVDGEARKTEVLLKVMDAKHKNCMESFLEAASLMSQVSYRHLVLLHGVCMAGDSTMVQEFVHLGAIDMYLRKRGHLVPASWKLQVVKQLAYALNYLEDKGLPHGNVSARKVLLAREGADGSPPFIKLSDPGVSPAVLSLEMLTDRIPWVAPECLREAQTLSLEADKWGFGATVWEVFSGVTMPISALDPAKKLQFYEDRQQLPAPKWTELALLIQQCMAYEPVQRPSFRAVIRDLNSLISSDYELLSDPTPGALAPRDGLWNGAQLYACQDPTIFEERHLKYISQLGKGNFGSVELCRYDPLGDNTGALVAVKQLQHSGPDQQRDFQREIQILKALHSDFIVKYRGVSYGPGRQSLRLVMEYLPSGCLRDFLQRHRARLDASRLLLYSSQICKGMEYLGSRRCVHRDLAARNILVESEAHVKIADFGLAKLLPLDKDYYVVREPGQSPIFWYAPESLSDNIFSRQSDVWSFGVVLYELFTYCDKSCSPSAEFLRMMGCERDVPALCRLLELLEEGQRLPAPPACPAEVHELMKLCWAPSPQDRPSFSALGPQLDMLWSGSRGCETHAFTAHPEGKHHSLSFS
JAK1 JH2 pseudokinase (human), sequence (P23458 whole entry, looked up): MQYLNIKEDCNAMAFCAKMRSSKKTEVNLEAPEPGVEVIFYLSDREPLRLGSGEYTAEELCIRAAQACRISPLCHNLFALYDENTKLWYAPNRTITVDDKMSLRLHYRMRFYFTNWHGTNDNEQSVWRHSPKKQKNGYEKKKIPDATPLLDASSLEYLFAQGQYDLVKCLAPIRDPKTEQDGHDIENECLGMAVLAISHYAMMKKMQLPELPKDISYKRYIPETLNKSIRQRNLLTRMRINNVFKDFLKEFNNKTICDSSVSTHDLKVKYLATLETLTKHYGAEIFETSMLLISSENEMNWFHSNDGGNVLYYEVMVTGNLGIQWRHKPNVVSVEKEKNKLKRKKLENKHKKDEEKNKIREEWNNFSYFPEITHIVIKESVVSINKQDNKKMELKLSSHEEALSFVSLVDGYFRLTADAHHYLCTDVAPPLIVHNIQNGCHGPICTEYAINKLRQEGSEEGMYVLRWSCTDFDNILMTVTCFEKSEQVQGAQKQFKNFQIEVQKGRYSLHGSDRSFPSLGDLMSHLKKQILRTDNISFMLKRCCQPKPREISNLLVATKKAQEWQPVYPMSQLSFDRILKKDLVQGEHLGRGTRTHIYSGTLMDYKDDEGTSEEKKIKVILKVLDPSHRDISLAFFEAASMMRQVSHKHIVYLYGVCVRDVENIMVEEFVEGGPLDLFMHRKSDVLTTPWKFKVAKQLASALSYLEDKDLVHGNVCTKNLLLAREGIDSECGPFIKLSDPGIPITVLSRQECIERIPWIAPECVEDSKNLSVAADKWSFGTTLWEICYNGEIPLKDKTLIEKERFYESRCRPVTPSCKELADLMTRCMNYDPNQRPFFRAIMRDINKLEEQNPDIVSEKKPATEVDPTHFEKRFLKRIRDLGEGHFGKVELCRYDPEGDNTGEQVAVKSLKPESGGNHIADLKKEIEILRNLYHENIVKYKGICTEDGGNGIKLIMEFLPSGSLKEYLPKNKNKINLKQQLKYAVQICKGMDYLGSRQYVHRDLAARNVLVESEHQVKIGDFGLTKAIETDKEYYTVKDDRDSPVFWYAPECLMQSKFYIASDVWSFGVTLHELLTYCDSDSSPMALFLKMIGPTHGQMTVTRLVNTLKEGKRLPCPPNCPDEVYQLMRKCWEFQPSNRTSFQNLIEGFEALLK
MAP3K5 (human), sequence (Q99683 whole entry, looked up): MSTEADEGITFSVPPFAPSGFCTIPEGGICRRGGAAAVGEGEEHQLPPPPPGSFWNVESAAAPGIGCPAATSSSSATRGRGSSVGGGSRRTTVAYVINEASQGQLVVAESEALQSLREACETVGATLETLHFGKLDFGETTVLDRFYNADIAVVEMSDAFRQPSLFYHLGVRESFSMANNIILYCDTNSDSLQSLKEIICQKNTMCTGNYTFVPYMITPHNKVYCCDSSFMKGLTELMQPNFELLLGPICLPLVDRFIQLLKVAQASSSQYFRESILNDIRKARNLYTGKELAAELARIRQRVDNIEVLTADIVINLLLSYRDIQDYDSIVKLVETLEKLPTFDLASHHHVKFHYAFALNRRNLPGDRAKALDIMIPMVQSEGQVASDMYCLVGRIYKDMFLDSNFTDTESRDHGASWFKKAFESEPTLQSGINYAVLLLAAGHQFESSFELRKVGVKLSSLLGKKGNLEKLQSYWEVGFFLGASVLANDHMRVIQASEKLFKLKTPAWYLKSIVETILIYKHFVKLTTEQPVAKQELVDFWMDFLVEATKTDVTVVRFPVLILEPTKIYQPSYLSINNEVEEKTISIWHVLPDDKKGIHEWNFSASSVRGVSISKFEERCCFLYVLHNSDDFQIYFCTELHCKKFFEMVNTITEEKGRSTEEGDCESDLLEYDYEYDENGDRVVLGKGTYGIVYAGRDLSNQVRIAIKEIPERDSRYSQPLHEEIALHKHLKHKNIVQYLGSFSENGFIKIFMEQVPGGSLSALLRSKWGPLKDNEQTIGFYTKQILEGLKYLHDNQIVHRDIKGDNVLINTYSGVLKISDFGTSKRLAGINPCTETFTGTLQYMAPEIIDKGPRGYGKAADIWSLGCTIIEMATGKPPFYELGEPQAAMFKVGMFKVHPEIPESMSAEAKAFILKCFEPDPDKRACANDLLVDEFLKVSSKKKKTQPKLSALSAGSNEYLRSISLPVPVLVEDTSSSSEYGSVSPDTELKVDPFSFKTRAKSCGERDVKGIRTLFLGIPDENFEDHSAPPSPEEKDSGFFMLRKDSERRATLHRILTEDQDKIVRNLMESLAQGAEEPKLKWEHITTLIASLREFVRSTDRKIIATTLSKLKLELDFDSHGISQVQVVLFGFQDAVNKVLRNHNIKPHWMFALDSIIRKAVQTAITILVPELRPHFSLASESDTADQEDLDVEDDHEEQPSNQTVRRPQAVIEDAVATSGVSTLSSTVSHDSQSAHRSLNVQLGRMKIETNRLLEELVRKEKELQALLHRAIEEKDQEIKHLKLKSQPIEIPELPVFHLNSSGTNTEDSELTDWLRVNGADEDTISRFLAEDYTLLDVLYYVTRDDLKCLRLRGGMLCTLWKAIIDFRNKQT
CLK3 (human), sequence (P49761 whole entry, looked up): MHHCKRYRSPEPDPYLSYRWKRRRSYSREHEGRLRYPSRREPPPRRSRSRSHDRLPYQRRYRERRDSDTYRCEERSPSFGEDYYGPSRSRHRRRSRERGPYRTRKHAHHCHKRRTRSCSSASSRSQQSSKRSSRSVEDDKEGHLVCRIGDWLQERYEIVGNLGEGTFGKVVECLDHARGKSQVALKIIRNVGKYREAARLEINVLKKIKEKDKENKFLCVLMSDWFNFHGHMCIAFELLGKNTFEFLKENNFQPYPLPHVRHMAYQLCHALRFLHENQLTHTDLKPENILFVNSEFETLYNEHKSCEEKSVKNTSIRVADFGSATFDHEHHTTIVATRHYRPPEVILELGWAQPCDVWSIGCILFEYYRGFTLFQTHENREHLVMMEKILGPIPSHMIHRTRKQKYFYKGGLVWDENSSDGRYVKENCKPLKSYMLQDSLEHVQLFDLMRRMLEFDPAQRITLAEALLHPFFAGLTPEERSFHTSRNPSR
MAP2K4 (human), sequence (P45985 whole entry, looked up): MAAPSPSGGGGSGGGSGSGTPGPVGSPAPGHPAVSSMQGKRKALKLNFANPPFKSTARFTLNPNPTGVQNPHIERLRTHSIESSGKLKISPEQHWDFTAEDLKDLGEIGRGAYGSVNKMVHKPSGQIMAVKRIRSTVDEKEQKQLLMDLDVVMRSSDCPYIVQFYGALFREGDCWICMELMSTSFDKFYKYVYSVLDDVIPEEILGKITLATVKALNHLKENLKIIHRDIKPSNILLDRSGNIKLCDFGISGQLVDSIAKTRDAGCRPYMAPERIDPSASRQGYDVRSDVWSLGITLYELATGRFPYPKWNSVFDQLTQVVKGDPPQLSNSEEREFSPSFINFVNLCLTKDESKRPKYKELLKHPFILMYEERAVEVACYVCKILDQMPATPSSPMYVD

## CN1C(=O)c2ccccc2N(C)c2nc(NS(=O)(=O)c3ccc(N)cc3)ncc21
PIP5K1A (human)
  kinase still bound, per cent of control: 100%
TAOK1 (human)
  kinase still bound, per cent of control: 60%
CLK3 (human)
  kinase still bound, per cent of control: 95%
PDGFRB (human)
  kinase still bound, per cent of control: 76%
PRKD1 (human)
  kinase still bound, per cent of control: 100%
[1]
  kinase still bound, per cent of control: 95%
DAPK2 (human)
  kinase still bound, per cent of control: 94%
[2]
  kinase still bound, per cent of control: 100%
CSNK1G3 (human)
  kinase still bound, per cent of control: 100%
CHUK (human)
  kinase still bound, per cent of control: 95%
MAP3K5 (human)
  kinase still bound, per cent of control: 100%
DAPK3 (human)
  kinase still bound, per cent of control: 95%
MAP4K4 (human)
  kinase still bound, per cent of control: 100%
RIPK4 (human)
  kinase still bound, per cent of control: 89%
[3]
  kinase still bound, per cent of control: 100%
MYLK4 (human)
  kinase still bound, per cent of control: 100%
PRKD3 (human)
  kinase still bound, per cent of control: 100%
CDK16 (human)
  kinase still bound, per cent of control: 100%
[4]
  kinase still bound, per cent of control: 63%
[5]
  kinase still bound, per cent of control: 100%
CSNK1E (human)
  kinase still bound, per cent of control: 100%
MAP2K4 (human)
  kinase still bound, per cent of control: 61%
RIOK1 (human)
  kinase still bound, per cent of control: 66%
RPS6KA5 KD2 (human)
  kinase still bound, per cent of control: 100%
PIK3CG (human)
  kinase still bound, per cent of control: 96%
[6]
  kinase still bound, per cent of control: 100%
[7]
  kinase still bound, per cent of control: 100%
STK33 (human)
  kinase still bound, per cent of control: 100%
[8]
  kinase still bound, per cent of control: 99%
RPS6KA2 KD2 (human)
  kinase still bound, per cent of control: 93%
STK17A (human)
  kinase still bound, per cent of control: 100%
HIPK1 (human)
  kinase still bound, per cent of control: 100%
PIP4K2B (human)
  kinase still bound, per cent of control: 100%
MYLK (human)
  kinase still bound, per cent of control: 82%
DMPK (human)
  kinase still bound, per cent of control: 86%
[9]
  kinase still bound, per cent of control: 100%
CLK1 (human)
  kinase still bound, per cent of control: 100%
[10]
  kinase still bound, per cent of control: 100%
CAMKK1 (human)
  kinase still bound, per cent of control: 100%
[11]
  kinase still bound, per cent of control: 90%
STK17B (human)
  kinase still bound, per cent of control: 100%
RPS6KA1 KD2 (human)
  kinase still bound, per cent of control: 100%
